In article PMC10810011 (Expert opinion on drug delivery, 2023):

How the values were obtained:
[1] = target: T1, CCK (Homo sapiens, UniProt P32238); experiment: InVEST radioligand filter binding, CCK; conditions: CCK, M13 20 μM, 100 = no effect
T1 sequence (P32238 1-428): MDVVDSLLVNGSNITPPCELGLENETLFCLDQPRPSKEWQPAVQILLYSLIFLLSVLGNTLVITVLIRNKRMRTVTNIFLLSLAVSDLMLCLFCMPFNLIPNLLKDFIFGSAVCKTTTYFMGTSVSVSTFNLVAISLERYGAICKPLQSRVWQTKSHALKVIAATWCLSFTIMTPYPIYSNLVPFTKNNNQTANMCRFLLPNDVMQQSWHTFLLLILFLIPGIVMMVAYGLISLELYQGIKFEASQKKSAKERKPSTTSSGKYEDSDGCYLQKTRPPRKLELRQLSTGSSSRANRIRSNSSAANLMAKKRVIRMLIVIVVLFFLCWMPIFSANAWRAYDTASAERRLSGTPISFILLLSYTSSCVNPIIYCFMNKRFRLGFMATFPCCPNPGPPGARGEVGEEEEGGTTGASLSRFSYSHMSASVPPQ

[2] = target: D3 dopamine (Homo sapiens, UniProt P35462); experiment: InVEST radioligand filter binding, D3 dopamine; conditions: M13 20 μM, 100 = no effect
Chain of D3 dopamine (P35462 whole entry): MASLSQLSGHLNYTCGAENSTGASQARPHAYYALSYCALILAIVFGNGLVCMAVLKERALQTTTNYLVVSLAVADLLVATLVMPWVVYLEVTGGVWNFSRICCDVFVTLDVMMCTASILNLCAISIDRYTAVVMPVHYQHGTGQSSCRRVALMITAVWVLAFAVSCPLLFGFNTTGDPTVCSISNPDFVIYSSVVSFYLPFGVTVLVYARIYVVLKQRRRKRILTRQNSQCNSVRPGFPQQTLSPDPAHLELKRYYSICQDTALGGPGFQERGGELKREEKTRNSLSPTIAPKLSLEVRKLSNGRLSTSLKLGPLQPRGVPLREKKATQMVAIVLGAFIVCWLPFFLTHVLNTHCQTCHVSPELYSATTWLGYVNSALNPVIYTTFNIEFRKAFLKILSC

[3] = target: T2, Muscarinic M2 (Homo sapiens, UniProt P08172); experiment: InVEST radioligand filter binding, Muscarinic M2; conditions: M13 20 μM, 100 = no effect
T2 sequence (P08172 1-466): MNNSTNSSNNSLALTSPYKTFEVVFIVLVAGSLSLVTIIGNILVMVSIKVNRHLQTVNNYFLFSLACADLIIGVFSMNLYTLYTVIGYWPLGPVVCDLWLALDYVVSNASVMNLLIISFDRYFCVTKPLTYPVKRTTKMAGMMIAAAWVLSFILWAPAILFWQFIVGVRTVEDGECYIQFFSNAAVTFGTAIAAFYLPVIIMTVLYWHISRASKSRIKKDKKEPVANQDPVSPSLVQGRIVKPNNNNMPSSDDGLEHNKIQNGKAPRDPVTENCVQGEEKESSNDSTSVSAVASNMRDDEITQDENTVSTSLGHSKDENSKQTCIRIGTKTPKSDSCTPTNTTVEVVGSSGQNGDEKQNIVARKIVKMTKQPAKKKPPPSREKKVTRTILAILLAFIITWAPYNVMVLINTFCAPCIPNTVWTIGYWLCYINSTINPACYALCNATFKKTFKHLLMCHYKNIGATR

[4] = target: 5-HT1B (Homo sapiens, UniProt P28222); experiment: InVEST radioligand filter binding, 5-HT1B; conditions: 5-HT1B, M13 20 μM, 100 = no effect
Chain of 5-HT1B (P28222 whole entry): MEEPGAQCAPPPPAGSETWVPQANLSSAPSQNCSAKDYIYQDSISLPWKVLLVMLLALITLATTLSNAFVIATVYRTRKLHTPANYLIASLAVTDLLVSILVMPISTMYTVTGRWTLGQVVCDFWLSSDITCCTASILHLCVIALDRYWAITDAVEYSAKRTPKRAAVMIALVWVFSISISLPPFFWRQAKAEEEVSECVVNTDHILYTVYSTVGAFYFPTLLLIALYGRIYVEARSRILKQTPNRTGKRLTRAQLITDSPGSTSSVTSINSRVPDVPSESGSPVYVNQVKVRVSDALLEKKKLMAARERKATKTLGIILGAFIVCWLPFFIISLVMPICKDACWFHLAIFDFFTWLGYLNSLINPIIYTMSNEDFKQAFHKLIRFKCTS

[5] = target: 5-HT1A (Homo sapiens, UniProt P08908); experiment: InVEST radioligand filter binding, 5-HT1A; conditions: M13 20 μM, 100 = no effect
Chain of 5-HT1A (P08908 whole entry): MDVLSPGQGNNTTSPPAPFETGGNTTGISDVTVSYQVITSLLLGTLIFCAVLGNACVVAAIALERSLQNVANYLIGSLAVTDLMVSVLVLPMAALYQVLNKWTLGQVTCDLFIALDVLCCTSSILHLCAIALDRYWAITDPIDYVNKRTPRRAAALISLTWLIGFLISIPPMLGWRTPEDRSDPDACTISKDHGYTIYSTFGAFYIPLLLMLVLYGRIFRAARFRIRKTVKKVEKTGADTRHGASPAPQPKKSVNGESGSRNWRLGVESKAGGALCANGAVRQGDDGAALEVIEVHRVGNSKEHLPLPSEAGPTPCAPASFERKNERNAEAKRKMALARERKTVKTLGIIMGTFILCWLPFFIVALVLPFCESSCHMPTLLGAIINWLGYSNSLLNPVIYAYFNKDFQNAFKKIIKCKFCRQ

[6] = system: AOM/DSS-induced CAC mice; experiment: AOM/DSS-induced CAC mouse model; assay type: in vivo; conditions: oral 5 mg/kg every 2 days, day 60
[7] = target: Opioid mu (Homo sapiens, UniProt P35372); experiment: InVEST radioligand filter binding, Opioid mu; conditions: M13 20 μM, 100 = no effect
Chain of Opioid mu (P35372 whole entry): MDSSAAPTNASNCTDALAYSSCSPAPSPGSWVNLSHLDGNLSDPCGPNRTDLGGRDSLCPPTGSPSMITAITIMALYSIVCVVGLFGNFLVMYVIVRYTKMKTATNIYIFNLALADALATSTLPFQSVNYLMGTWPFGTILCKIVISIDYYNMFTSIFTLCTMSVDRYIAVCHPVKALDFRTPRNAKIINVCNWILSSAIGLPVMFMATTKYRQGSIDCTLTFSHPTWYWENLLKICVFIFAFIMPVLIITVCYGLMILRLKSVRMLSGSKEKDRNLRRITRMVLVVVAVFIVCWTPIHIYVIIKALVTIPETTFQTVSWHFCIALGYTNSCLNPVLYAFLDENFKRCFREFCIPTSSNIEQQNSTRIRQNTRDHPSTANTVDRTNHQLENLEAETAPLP

[8] = target: Muscarinic M3 (Homo sapiens, UniProt P20309); experiment: InVEST radioligand filter binding, Muscarinic M3; conditions: M13 20 μM, 100 = no effect
Chain of Muscarinic M3 (P20309 whole entry): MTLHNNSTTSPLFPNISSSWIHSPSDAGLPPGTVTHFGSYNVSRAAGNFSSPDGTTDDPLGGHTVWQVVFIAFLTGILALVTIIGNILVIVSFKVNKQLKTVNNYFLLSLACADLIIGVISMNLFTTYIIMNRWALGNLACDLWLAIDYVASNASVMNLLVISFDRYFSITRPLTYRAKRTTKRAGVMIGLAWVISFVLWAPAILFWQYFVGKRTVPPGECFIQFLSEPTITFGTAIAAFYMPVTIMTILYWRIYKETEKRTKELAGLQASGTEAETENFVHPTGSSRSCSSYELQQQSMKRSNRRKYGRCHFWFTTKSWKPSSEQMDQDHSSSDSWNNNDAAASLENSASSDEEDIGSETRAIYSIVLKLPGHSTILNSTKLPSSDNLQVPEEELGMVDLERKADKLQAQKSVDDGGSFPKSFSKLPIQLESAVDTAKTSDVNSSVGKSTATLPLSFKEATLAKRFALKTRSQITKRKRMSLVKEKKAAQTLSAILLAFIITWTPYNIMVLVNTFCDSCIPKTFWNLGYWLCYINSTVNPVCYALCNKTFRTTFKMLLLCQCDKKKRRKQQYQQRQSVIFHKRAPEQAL

CCCCCC(CC(=O)CCc1ccc(O)c(OC)c1)SC[C@H](NC(=O)CC[C@H](N)C(=O)O)C(=O)NCC(=O)O (stereo partly drawn) [M13, 5-glutathione-6-shogaol]
% Activity Data 1 ([1]; repetition 1): 94% | % Activity Data 2 ([1]; repetition 2): 92% | % Activity Data 1 ([2]; repetition 1): 96% | % Activity Data 2 ([2]; repetition 2): 100% | % Activity Data 1 ([3]; repetition 1): 93% | % Activity Data 2 ([3]; repetition 2): 115% | % Activity Data 1 ([4]; repetition 1): 100% | % Activity Data 2 ([4]; repetition 2): 102% | % Activity Data 1 ([5]; repetition 1): 102% | % Activity Data 2 ([5]; repetition 2): 100% | number of tumors compared with the AOM/DSS group [6]: failed to reduce | % Activity Data 1 ([7]; repetition 1): 98% | % Activity Data 2 ([7]; repetition 2): 96% | % Activity Data 1 ([8]; repetition 1): 100% | % Activity Data 2 ([8]; repetition 2): 103%
